From patent publication US20240124486A1, “MACROCYCLIC TLR7 AGONIST, PREPARATION METHOD THEREFOR, PHARMACEUTICAL COMPOSITION AND USE THEREOF” (SHANGHAI VISONPHARMA CO., LTD., priority 2020, published 2024)

molecular target: T1, human TLR7 (Homo sapiens, UniProt Q9NYK1); assay: Agonistic activity on human TLR7 in HEK-Blue hTLR7 cell line (QUANTI-Blue reporter); format: cell-based; conditions: HEK-Blue hTLR7 cells, 16-22 h incubation, absorption at 630 nm; read-out: EC50 value of the agonistic effect on human TLR7
T1 construct: host or cells: HEK-Blue hTLR7 (HEK293-derived reporter cells)
T1 sequence (Q9NYK1 27-1049): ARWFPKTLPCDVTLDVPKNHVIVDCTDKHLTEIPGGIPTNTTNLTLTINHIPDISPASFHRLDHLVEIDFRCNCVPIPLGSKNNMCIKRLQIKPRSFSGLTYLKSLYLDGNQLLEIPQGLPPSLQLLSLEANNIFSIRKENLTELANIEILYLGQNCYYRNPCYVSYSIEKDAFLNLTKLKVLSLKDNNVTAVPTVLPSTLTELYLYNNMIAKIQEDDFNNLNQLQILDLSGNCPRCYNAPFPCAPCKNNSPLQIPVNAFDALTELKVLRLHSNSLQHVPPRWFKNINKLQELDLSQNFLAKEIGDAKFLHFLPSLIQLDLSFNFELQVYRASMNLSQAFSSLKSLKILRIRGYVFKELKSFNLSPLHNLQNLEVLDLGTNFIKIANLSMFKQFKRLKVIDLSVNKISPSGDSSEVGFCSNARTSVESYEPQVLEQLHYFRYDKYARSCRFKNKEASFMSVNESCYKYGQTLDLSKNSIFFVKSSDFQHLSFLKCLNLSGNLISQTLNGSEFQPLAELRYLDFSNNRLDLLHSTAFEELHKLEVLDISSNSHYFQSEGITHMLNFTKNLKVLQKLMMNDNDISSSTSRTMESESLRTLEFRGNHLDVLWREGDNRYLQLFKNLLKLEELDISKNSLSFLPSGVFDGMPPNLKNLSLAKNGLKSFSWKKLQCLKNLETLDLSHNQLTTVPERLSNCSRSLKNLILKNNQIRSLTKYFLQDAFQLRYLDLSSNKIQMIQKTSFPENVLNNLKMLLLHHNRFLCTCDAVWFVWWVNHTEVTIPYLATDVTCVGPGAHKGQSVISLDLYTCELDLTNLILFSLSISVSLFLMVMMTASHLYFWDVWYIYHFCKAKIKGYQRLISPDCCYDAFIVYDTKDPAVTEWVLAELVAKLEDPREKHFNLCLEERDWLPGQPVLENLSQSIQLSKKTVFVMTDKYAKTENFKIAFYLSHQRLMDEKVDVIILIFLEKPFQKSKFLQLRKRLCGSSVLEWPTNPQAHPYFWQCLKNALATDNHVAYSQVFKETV
Experimental: The TLR7 agonistic activity of the compounds of the invention in HEK-Blue™ hTLR7 cell line with stable expression of human TLR7 were assayed using the following method: • 1. Weighed the test compounds and prepared stock solutions with DMSO (Sigma) at a concentration of 10 mM. […] The highest concentration was 1 mM. • 2. The test compounds and DMSO control were diluted 10-fold in DPBS buffer (Gibco) and then added to a 96-well cell culture plate (Corning) at a volume of 20 μL/well. • 3. HEK-Blue™ hTLR7 cells (Invivogen) were digested with cell separation solution (Gibco), and counted (TC-20 cell counter, Bio-rad). Cells were diluted to 4.4E5/ml using DMEM cell medium (Gibco). Added the cells to a 96-well cell culture plate at a volume of 180 μL/well. The cells were incubated for 16-22 h at 37° C. in a 5% CO2 incubator. • 4. Prepared QUANTI-Blue detection reagent (Invivogen), and added into a new 96-well plate at a volume of 180 μL/well. Twenty μL of cell culture supernatant was transferred from the cell culture plate and added to the 96-well plate and incubated at 37° C. for 1-3 hours. • 5. Neo2 multifunctional microplate reader (Bio-Tek) was used to measure the optical absorption at 630 nm, and the EC50 was calculated by GraphPad Prism.
The agonistic effect of the compounds of the invention on human TLR7 can be determined by the above experiments, and the measured EC50 value is shown in Table 1.

| EC50 [nM] | Compound |
| --- | --- |
| 3 | Nc1nc2nc3c1[nH]c(=O)n3Cc1cc(c3c(c1)C(=O)N(CC(=O)O)C3)C/C=C\CCO2 [Compound I-1] |
| 10 | Nc1nc2nc3c1[nH]c(=O)n3Cc1cc(c3c(c1)C(=O)N(CC(=O)O)C3)CCCCCO2 [Compound I-3] |
| 5 | CN1Cc2c3cc(cc2C1=O)Cn1c(=O)[nH]c2c(N)nc(nc21)OCCC=CC3 [Compound I-4] |
| 113 | CN1Cc2c3cc(cc2C1=O)Cn1c(=O)[nH]c2c(N)nc(nc21)OCCCCC3 [Compound I-5] |
| 2 | Nc1nc2nc3c1[nH]c(=O)n3Cc1cc(c3c(c1)C(=O)N(CCN1CCCC1)C3)C/C=C\CCO2 [Compound I-6] |
| 8 | Nc1nc2nc3c1[nH]c(=O)n3Cc1cc(c3c(c1)C(=O)N(CCN1CCCC1)C3)C/C=C/CCO2 [Compound I-7] |
| 15 | Nc1nc2nc3c1[nH]c(=O)n3Cc1cc(c3c(c1)CNCC3)C/C=C\CCO2 [Compound I-8] |
| 9 | Nc1nc2nc3c1[nH]c(=O)n3Cc1cc(c3c(c1)CNCC3)C/C=C/CCO2 [Compound I-9] |
| 26 | Nc1nc2nc3c1[nH]c(=O)n3Cc1cc(c3c(c1)CNCC3)CCCCCO2 [Compound I-10] |
| 6 | Nc1nc2nc3c1[nH]c(=O)n3Cc1cc(c3c(c1)CCNC3)C/C=C\CCO2 [Compound I-11] |
| 8 | Nc1nc2nc3c1[nH]c(=O)n3Cc1cc(c3c(c1)CCNC3)C/C=C/CCO2 [Compound I-12] |
| 28 | Nc1nc2nc3c1[nH]c(=O)n3Cc1cc(c3c(c1)CCNC3)CCCCCO2 [Compound I-13] |
| 38 | Nc1nc2nc3c1[nH]c(=O)n3Cc1cc(c3c(c1)CCC(C(=O)O)O3)CC=CCCO2 (stereo not shown) [Compound I-14] |
| 228 | Nc1nc2nc3c1[nH]c(=O)n3Cc1cc(c3c(c1)CCC(C(=O)O)O3)CCCCCO2 (stereo not shown) [Compound I-15] |
| 17 | Nc1nc2nc3c1[nH]c(=O)n3Cc1cc(c3c(c1)CC(C(=O)O)O3)CC=CCCO2 (stereo not shown) [Compound I-16] |
| 167 | Nc1nc2nc3c1[nH]c(=O)n3Cc1cc(c3c(c1)CC(C(=O)O)O3)CCCCCO2 (stereo not shown) [Compound I-17] |
| 20 | Nc1nc2nc3c1[nH]c(=O)n3Cc1cc(c3c(c1)CC(C(=O)O)CO3)CC=CCCO2 (stereo not shown) [Compound I-18] |
| 165 | Nc1nc2nc3c1[nH]c(=O)n3Cc1cc(c3c(c1)CC(C(=O)O)CO3)CCCCCO2 (stereo not shown) [Compound I-19] |
| 42 | CC1(C(=O)O)Cc2cc3cc(c2C1)C/C=C\CCOc1nc(N)c2[nH]c(=O)n(c2n1)C3 (stereo not shown) [Compound I-21] |
| 15 | Nc1nc2nc3c1[nH]c(=O)n3Cc1cc(c3c(c1)CN(CC(=O)O)CC3)C/C=C/CCO2 [Compound I-22] |
| 79 | Nc1nc2nc3c1[nH]c(=O)n3Cc1cc(c3c(c1)CN(CC(=O)O)CC3)CCCCCO2 [Compound I-23] |
| 84 | Nc1nc2nc3c1[nH]c(=O)n3Cc1cc(c3c(c1)CCN(CC(=O)O)C3)CC=CCCO2 [Compound I-24] |
| 95 | Nc1nc2nc3c1[nH]c(=O)n3Cc1cc(c3c(c1)CCN(CC(=O)O)C3)CCCCCO2 [Compound I-25] |
| 76 | CC(C)(CN1CCc2c3cc(cc2C1)Cn1c(=O)[nH]c2c(N)nc(nc21)OCCCCC3)C(=O)O [Compound I-27] |
| 111 | Nc1nc2nc3c1[nH]c(=O)n3Cc1cc(c3c(c1)CNCC3)CCCCCCO2 [Compound I-28] |
| 35 | Nc1nc2nc3c1[nH]c(=O)n3Cc1cc3c(c(c1)OC[C@@H]1CC[C@H]1CO2)CCNC3 [Compound I-29] |

| EC50 [nM] | Compound |
| --- | --- |
| 75 | Nc1nc2nc3c1[nH]c(=O)n3Cc1cc3c(c(c1)OCCCO2)CCNC3 [Compound I-30] |
| 39 | Nc1nc2nc3c1[nH]c(=O)n3Cc1cc3c(c(c1)OCCCCO2)CCNC3 [Compound I-31] |
| 31 | Nc1nc2nc3c1[nH]c(=O)n3Cc1cc3c(c(c1)OC[C@@H]1C[C@H]1CO2)CCNC3 [Compound I-32] |
| 140 | Nc1nc2nc3c1[nH]c(=O)n3Cc1cc3c(c(c1)OC[C@@H]1CCC[C@H]1CO2)CCNC3 [Compound I-33] |
| 132 | Nc1nc2cc3c1[nH]c(=O)n3Cc1cc(c3c(c1)CNCC3)C/C=C/CCO2 [Compound I-34] |
| 20 | CN1CCc2c3cc(cc2C1)Cn1c(=O)[nH]c2c(N)nc(nc21)OCCCCC3 [Compound I-36] |
| 47 | Nc1nc2nc3c1[nH]c(=O)n3Cc1cc(c3c(c1)CN(CCO)CC3)CCCCCO2 [Compound I-38] |
| 3150 | Nc1nc2nc3c1[nH]c(=O)n3Cc1cc(c3c(c1)CN(CC(F)(F)F)CC3)CCCCCO2 [Compound I-39] |
| 280 | Nc1nc2nc3c1[nH]c(=O)n3Cc1cc(c3c(c1)CN(C1CCNCC1)CC3)CCCCCO2 [Compound I-40] |
| 22 | Nc1nc2nc3c1[nH]c(=O)n3Cc1cc(c3c(c1)CN(C1CCOCC1)CC3)CCCCCO2 [Compound I-41] |
| 3 | CS(=O)(=O)N1CCc2c3cc(cc2C1)Cn1c(=O)[nH]c2c(N)nc(nc21)OCCC=CC3 [Compound I-43] |
| 38 | Nc1nc2nc3c1[nH]c(=O)n3Cc1cc(c3c(c1)CN(C(=O)c1ccccc1)CC3)CC=CCCO2 [Compound I-44] |
| 579 | Nc1nc2nc3c1[nH]c(=O)n3Cc1cc(c3c(c1)CN(S(=O)(=O)c1ccccc1)CC3)CC=CCCO2 [Compound I-45] |
| 980 | Cc1cnc(N2CCc3c4cc(cc3C2)Cn2c(=O)[nH]c3c(N)nc(nc32)OCCCCC4)nc1 [Compound I-46] |
| 165 | Nc1nc2nc3c1[nH]c(=O)n3Cc1cc(c3c(c1)CN(Cc1ccncc1)CC3)CCCCCO2 [Compound I-47] |
| 73 | COC(=O)CN1CCc2c3cc(cc2C1)Cn1c(=O)[nH]c2c(N)nc(nc21)OCCCCC3 [Compound I-49] |
| 19 | CC(C)(C)N1Cc2c3cc(cc2C1=O)Cn1c(=O)[nH]c2c(N)nc(nc21)SCC/C=C\C3 [Compound I-52] |
| 1100 | CN1CCC=CCc2cc(cc3c2CN(C(C)(C)C)C3=O)Cn2c(=O)[nH]c3c(N)nc1nc32 [Compound I-58] |
| 87 | CS(=O)(=O)CCN1CCc2c3cc(cc2C1)Cn1c(=O)[nH]c2c(N)nc(nc21)OCCCCC3 [Compound I-59] |
| 13 | Nc1nc2nc3c1[nH]c(=O)n3Cc1cc(c3c(c1)CNCC3)CCCCCS2(=O)=O [Compound I-61] |
| 13 | Nc1nc2nc3c1[nH]c(=O)n3Cc1cc(c3c(c1)CN(C1CCC1)CC3)CCCCCS2(=O)=O [Compound I-62] |
| 31 | CC(C)N1CCc2c3cc(cc2C1)Cn1c(=O)[nH]c2c(N)nc(nc21)S(=O)(=O)CCCCC3 [Compound I-63] |
| 11 | CC(C)N1CCc2cc3cc(c2C1)OCCCCOc1nc(N)c2[nH]c(=O)n(c2n1)C3 [Compound I-64] |
| 393 | Nc1nc2nc3c1[nH]c(=O)n3Cc1cc(cc3c1CNCC3)OCCCCO2 [Compound I-66] |
| 316 | Nc1nc2nc3c1[nH]c(=O)n3Cc1cc(cc3c1OCC3)CCCCCO2 [Compound I-67] |
| 25 | Nc1nc2nc3c1[nH]c(=O)n3Cc1cc(cc3c1CN(C1CCC1)CC3)OCCCCO2 [Compound I-68] |
